Assay results published in patent US12479825B2, “Melanocortin subtype-2 receptor (MC2R) antagonists and uses thereof” (Crinetics Pharmaceuticals, Inc., priority 2019, dated 2025).

Molecular target: T1, hMC2 receptor (Homo sapiens, UniProt Q01718)
T1 construct: host or cells: CRE-bla-CHO-K1 cells, crude membrane fraction
Assay: hMC2 membrane binding assay ([125I]ACTH (1-39) Tyr23, SPA)
Settings: crude hMC2R membranes from CRE-bla-CHO-K1 cells expressing hMC2 receptor and hMRAP; 0.2 nM [125I]ACTH (1-39) Tyr23; 1.5 hours at room temperature; read-out: MC2R binding potency
Description: Crude membrane fractions are prepared from CRE-bla-CHO-K1 cells stably expressing hMC2 receptor and hMRAP accessory protein (Thermo Fisher). The cells are grown to 85-100% confluence on standard tissue culture dishes in GlutaMax DMEM growth media (Gibco) with following additives: 10% dialyzed FBS (Gemini), 0.1 mM NEAA (Gibco), 25 mM HEPES (Gibco), 5 μg/mL blasticidin (Goldbio), 100 μg/mL zeocin (Invitrogen), 600 μg/mL hygromycin (Goldbio). To prepare membranes, cells are scraped and collected in 1× Dulbecco's phosphate buffered saline (Corning) and then pelleted at 1000 RPM's. The cell pellet is reconstituted in membrane preparation buffer (20 mM HEPES, 6 mM MgCl2 and 1 mM EGTA, protease inhibitor tablets (Pierce) adjusted to pH 7.4), homogenized using a dounce homogenizer, and the resulting membrane fraction is pelleted by centrifugation at 12,000 RPM's. The membrane pellet is resuspended in membrane preparation buffer, snap freezed and stored at −80° C. for later use.
The hMC2 membrane binding assay utilizes the following components: radiolabel [^125I]ACTH (1-39) Tyr23 (PerkinElmer), wheat germ agglutinin coated PVT SPA beads (PerkinElmer), crude hMC2R membranes, and compounds. Briefly hMC2R membranes are incubated with SPA beads in binding assay buffer (50 mM HEPES, 5 mM MgCl2, 1 mM CaCl2, 0.2% BSA, protease inhibitor tablets (Pierce) adjusted to pH7.4) prior to assay initiation. A dose response of compound (the final concentration of compound is typically 0-10,000 nM), SPA membranes, and [^125I]ACTH (1-39) Tyr23 at a final concentration of 0.2 nM is plated in a 96-well assay plate and allowed to incubate 1.5 hours at room temperature. Assay plates are read using a Top Count NXT and Ki values for compounds are determined using a GraphPad Prism 6 non-linear regression analysis.

T1 sequence (Q01718 whole entry): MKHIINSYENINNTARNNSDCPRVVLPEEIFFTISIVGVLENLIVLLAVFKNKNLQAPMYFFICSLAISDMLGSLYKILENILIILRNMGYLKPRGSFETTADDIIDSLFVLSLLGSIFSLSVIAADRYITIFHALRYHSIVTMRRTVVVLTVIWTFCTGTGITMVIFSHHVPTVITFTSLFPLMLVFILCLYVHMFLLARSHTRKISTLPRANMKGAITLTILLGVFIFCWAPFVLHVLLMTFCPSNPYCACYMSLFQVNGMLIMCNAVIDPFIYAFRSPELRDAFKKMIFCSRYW
T1 sequence (Q8TCY5 whole entry partner): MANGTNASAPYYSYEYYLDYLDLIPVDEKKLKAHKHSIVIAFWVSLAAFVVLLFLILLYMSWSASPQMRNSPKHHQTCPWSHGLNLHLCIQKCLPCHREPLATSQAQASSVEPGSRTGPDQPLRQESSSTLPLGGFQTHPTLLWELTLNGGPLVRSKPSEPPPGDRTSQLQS

Row | Ki [nM] | Structure (SMILES)
1 | < 10 | CCOc1ccc(C(=O)N2CCN(c3ccc(-c4cccnc4OCC)nc3O[C@@H](C)CN)[C@H](CC)C2)c(C(F)(F)F)n1 [1-22, (2S)-2-({2′-ethoxy-5-[(2R)-4-[6-ethoxy-2-(trifluoromethyl)pyridine-3-carbonyl]-2-ethylpiperazin-1-yl]-[2,3′-bipyridin]-6-yl}oxy)propan-1-amine]
2 | < 10 | CCOc1ncccc1-c1ccc(N2CCN(C(=O)N3CCc4cccc(C#N)c43)C[C@H]2CC)c(OCCNC)n1 [1-23, 1-[(3R)-4-{2′-ethoxy-6-[2-(methylamino)ethoxy]-[2,3′-bipyridin]-5-yl}-3-ethylpiperazine-1-carbonyl]-2,3-dihydro-1H-indole-7-carbonitrile]
3 | < 10 | CCOc1ncccc1-c1ccc(N2CCN(C(=O)N3CCc4cccc(C#N)c43)C[C@H]2CC)c(OCCN)n1 [1-24, 1-[(3R)-4-[6-(2-aminoethoxy)-2′-ethoxy-[2,3′-bipyridin]-5-yl]-3-ethylpiperazine-1-carbonyl]-2,3-dihydro-1H-indole-7-carbonitrile]
4 | < 10 | CCOc1ncccc1-c1ccc(N2CCN(C(=O)N3CCc4cc(Cl)cc(C#N)c43)C[C@H]2CC)c(OCCN)n1 [1-25, 1-[(3R)-4-[6-(2-aminoethoxy)-2′-ethoxy-[2,3′-bipyridin]-5-yl]-3-ethylpiperazine-1-carbonyl]-5-chloro-2,3-dihydro-1H-indole-7-carbonitrile]
5 | < 10 | CCOc1ncccc1-c1ccc(N2CCN(C(=O)N3CCc4cc(Cl)cc(C#N)c43)C[C@H]2CC)c(OCCNC)n1 [1-26, 5-chloro-1-[(3R)-4-{2′-ethoxy-6-[2-(methylamino)ethoxy]-[2,3′-bipyridin]-5-yl}-3-ethylpiperazine-1-carbonyl]-2,3-dihydro-1H-indole-7-carbonitrile]
6 | < 10 | CCOc1ncccc1-c1ccc(N2CCN(C(=O)c3ccc(F)cc3C(F)(F)F)C[C@H]2CC)c(OCCNC)n1 [1-27, [2-({2′-ethoxy-5-[(2R)-2-ethyl-4-[4-fluoro-2-(trifluoromethyl)benzoyl]piperazin-1-yl]-[2,3′-bipyridin]-6-yl}oxy)ethyl](methyl)amine]
7 | < 10 | CCOc1ncccc1-c1ccc(N2CCN(C(=O)c3ccc(Cl)cc3Cl)C[C@H]2CC)c(OCCNC)n1 [1-28, [2-({5-[(2R)-4-(2,4-dichlorobenzoyl)-2-ethylpiperazin-1-yl]-2′-ethoxy-[2,3′-bipyridin]-6-yl}oxy)ethyl](methyl)amine]
8 | < 10 | CCOc1ncccc1-c1ccc(N2CCN(C(=O)c3ccc(F)cc3Cl)C[C@H]2CC)c(OCCNC)n1 [1-29, [2-({5-[(2R)-4-(2-chloro-4-fluorobenzoyl)-2-ethylpiperazin-1-yl]-2′-ethoxy-[2,3′-bipyridin]-6-yl}oxy)ethyl](methyl)amine]
9 | < 10 | CCOc1ncccc1-c1ccc(N2CCN(C(=O)c3ccc(OC)nc3C(F)(F)F)C[C@H]2CC)c(OCCNC)n1 [1-30, [2-({2′-ethoxy-5-[(2R)-2-ethyl-4-[6-methoxy-2-(trifluoromethyl)pyridine-3-carbonyl]piperazin-1-yl]-[2,3′-bipyridin]-6-yl}oxy)ethyl](methyl)amine]
10 | < 10 | CCOc1ncccc1-c1ccc(C2CCN(c3ccc(C(F)(F)F)cc3C#N)CC2)c(OCCNC)n1 [3-1, 2-(4-(2′-ethoxy-6-(2-(methylamino)ethoxy)-[2,3′-bipyridin]-5-yl)piperidin-1-yl)-5-(trifluoromethyl)benzonitrile]
11 | < 10 | CCOc1ncccc1-c1ccc(C2CCN(c3ccc(C(F)(F)F)nc3C#N)CC2)c(OCCNC)n1 [3-2, 3-(4-{2′-ethoxy-6-[2-(methylamino)ethoxy]-[2,3′-bipyridin]-5-yl}piperidin-1-yl)-6-(trifluoromethyl)pyridine-2-carbonitrile]
12 | 10 to 100 | CCOc1ncccc1-c1ccc(N2CCN(C(=O)c3ccc(F)cc3Cl)C[C@H]2CC)c(-c2nnc(CN)[nH]2)n1 [4-2, 1-(5-{5-[(2R)-4-(2-chloro-4-fluorobenzoyl)-2-ethylpiperazin-1-yl]-2′-ethoxy-[2,3′-bipyridin]-6-yl}-4H-1,2,4-triazol-3-yl)methanamine]
13 | 100 to 1000 | CCOc1ncccc1-c1ccc(N2CCN(C(=O)c3ccc(F)cc3Cl)C[C@H]2CC)c(-c2nnc(N)[nH]2)n1 [4-3, (R)-(4-(6-(5-amino-4H-1,2,4-triazol-3-yl)-2′-ethoxy-[2,3′-bipyridin]-5-yl)-3-ethylpiperazin-1-yl)(2-chloro-4-fluorophenyl)methanone]
